From patent US5756478A, “Method for reducing toxicity of D-nucleoside analogs with L-nucleosides” (priority 1996, dated 1998)
Values joined by “and” are separate entries in the source; they are usually repeats but may differ in a detail not shown here. Equal entries are not always repeated. “Also recorded” adds a separate entry of the source. Where two headings read alike, the source gives them in different places.

Experiments:
HIV-1IIIB [1] = test: Anti-HIV combination of D- and L-nucleosides in HIV-1IIIB infected MT-2 cells (isobolograms); assay type: cell-based; conditions: for Effect of L-nucleoside on ID50 of co-administered D-nucleoside: with AZT, D4T, ddC or DDI
Description: (§1) The following anti-HIV drugs were tested in combination with the L-nucleosides β-L-5-fluoro-2',b 3'-dideoxycytidine [β-L-FddC or L(-)FddC], β-L-5-fluoro-2',3'-dideoxy-2',3'-didehydrocytidine [β-L-Fd4C or L(-)Fd4C], β-L-5-fluoro-2',3'-dideoxy-3'-thiacytidine [L(-)FTC] and β-L-2',3'-dideoxy-3'-thiacytidine [L(-)SddC or 3TC]: 3'-azido-3'deoxythymidine (AZT) as well as the β-D-2',3'-dideoxynucleosides, for example, β-D-2',3'-dideoxycytidine (ddC), β-D-2',3'-dideoxyadenosine, β-D-2',3'-dideoxyinosine (DDI) and β-D-2',3'-didehydro-3'-deoxy-thymidine (D4T). β-L-FddC and β-L-Fd4C was obtained following the method of Lin, et al., J. Med. Chem., 37, no. 6 (1994). L(-)FTC and L(-)SddC were prepared by standard literature procedures. See, for example, Jeong, et al. J. Med. Chem., 36, 181 (1993). AZT was obtained from Sigma Chemical Co., St. Louis, Mo., USA. ddC was obtained from Aldrich Chemical Co., Milwaukke, Wis. USA. DDI and D4T were obtained from Bristol-Myers Co., Wallingford, Conn., USA.
(§2) The above-mentioned drugs were tested using MT-2 cells infected with HIV-1IIIB as described by JW Mellers, et al., Molecular Pharm. 41, 446-451 (1991) with some modification. Briefly, triplicate wells of 96-well plates containing 1×10^4 MT-2 cells were infected with HIV-1IIIB at a multiplicity of infection (MOI) of 0.1 TCID50 per cell (TCID50 - 50% tissue culture infective dose). Serial dilutions of drug were added immediately after infection. Cell viability was quantitated 5 days after infection by the MTT-dye reduction model (Larder, et al. Antimicrob. Agents Chemother. 34, 436-441, 1990). The percentage of protection was calculated with the formula [(a-b/c-b)×100], in which a=the A595 of drug-treated, virus-infected well, b=A595 of no-drug infected wells, and c=A595 of no-drug, uninfected wells.
Isobolograms (FIGS. 1-2) were plotted as the percent change in the ID50 of β-L-FddC (L(-)FddC), L(-)FTC, L(-)SddC (FIGS. 1 and 2) β-L-Fd4C (L(-)Fd4C) at various concentrations in combination with AZT, D4T, ddC or DDI at varying concentations on the x-axis and vice versa on the y-axis. Isobolograms (FIG. 3) were plotted as the percent change in the ID50 of β-L-Fd4C (L(-)Fd4C) at various concentrations in combination with AZT or D4T at varying concentrations on the x-axis and vice-versa on the y-axis.

HIV-1IIIB [2] = test: Anti-HIV activity: protection of MT-2 cells infected with HIV-1IIIB (MTT-dye reduction); assay type: cell-based; conditions: Human immunodeficiency virus 1, MT2, 120 h, MT-2 cells, HIV-1IIIB, MOI 0.1 TCID50 per cell, 5 days, read-out: ID50 (the source's name)
Description: as §1, §2

[3] = test system: Mitochondrial DNA (mtDNA); test: Mitochondrial DNA (mtDNA) content of CEM cells (slot blot); assay type: cell-based, Human; conditions: with AZT, ddC, DDI or D4T
Description: To determine the effect of nucleoside analogues on mtDNA content, CEM cells were treated with various concentrations of drug 8 days with medium and drug changes every 2 days. Cells (1×10^5)are washed twice with phosphate buffered […] (PBS) and resuspended in 25 mM Tris (pH 8.0) and 1 mM EDTA. The cells are lysed by 5 cycles of freeze/thaw. RNAase A (DNase free, final concentration of 0.1 mg/ml) is added to the cel ysate and incubated for 3 hours at 50° C. The lysate is brought to a final concentration of 10×SSC, boiled for 10 min., and applied to a nylon membrane presoaked in 2X SSC using a slot blot apparatus. […] All blots are normalized for loading using an Alu probe (ATCC). Blots are exposed to X-ray film and quantitated using a Molecular Dynamics Personal Densitometer SI.

[4] = test system: CEM, a Human T-type lymphoblast tumor cell line; test: Cell growth inhibition of CEM cells by D-nucleosides with or without L-nucleosides; assay type: cell-based
From the text: CEM, a Human T-type lymphoblast tumor cell line was used for this study. […] At the end of four days after the addition of the drug, the cell number was estimated by hemocytometer. […] The data, presented below in Table 1-3, are normalized against the control. The parenthetical values represent the expected effect the combined agents should have on cell growth.

[5] = Homo sapiens, CCRF-CEM, 96 h, single agent, 1.0 uM, day 4, read-out: Day 4 Cell Growth - % of Control
[6] = Homo sapiens, CCRF-CEM, 96 h, single agent, 0.1 uM, day 4, read-out: Day 4 Cell Growth - % of Control
[7] = Homo sapiens, CCRF-CEM, 96 h, single agent, day 4, read-out: Day 4 Cell Growth - % of Control

Q: How did the “Effect of L-nucleoside on ID50 of co-administered D-nucleoside” value (HIV-1IIIB [1]) turn out when `Nc1nc(=O)n(C2CCC(CO)O2)cc1F` (single isomer, unassigned) [β-L-FddC, β-L-5-fluoro-2',3'-dideoxycytidine] was run?
A: reduces the ID50 value of AZT, ddC, DDI and D4T; also recorded: decreases the ID50 of a co-administered D-nucleoside and vice versa

Q: And the IC50 (HIV-1IIIB [2])?
A: 450 nM

Q: And the “Effect of L-nucleoside on D-nucleoside inhibition of mitochondrial DNA synthesis” value [3]?
A: could prevent the effect of AZT, ddC, DDI or D4T in inhibiting the synthesis of mitochondrial DNA synthesis; also recorded: appears to inhibit the ability of the co-administered D-nucleoside to inhibit the synthesis of mitochondrial DNA

Q: And the activity at 1 µM [4, 5]?
A: 84%

Q: How did the “Effect of L-nucleoside on ID50 of co-administered D-nucleoside” value (HIV-1IIIB [1]) turn out when `Nc1nc(=O)n([C@@H]2CS[C@H](CO)O2)cc1F` [L(-)FTC, β-L-5-fluoro-2',3'-dideoxy-3'-thiacytidine] was run?
A: reduces the ID50 value of AZT, ddC, DDI and D4T; also recorded: decreases the ID50 of a co-administered D-nucleoside and vice versa

Q: And the IC50 (HIV-1IIIB [2]; unit inferred)?
A: 600 nM

Q: What about the “Effect of L-nucleoside on D-nucleoside inhibition of mitochondrial DNA synthesis” value [3] of the same compound?
A: could prevent the effect of AZT, ddC, DDI or D4T in inhibiting the synthesis of mitochondrial DNA synthesis

Q: And the activity at 0.1 µM [4, 6]?
A: 104%

Q: And the activity at 1 µM [4, 5]?
A: 87%

Q: And the activity at 10 µM [4, 7]?
A: 76%

Q: And the “Day 4 Cell Growth - % of Control” value ([4]; single agent, 1.0 uM, listed as (-) FTC, 5760 min)?
A: 84 % of Control

Q: And the “Day 4 Cell Growth - % of Control” value ([4]; single agent, 1.0 uM, listed as FTC, 5760 min)?
A: 87 % of Control

Q: Which results are given for `Nc1ccn([C@@H]2CS[C@H](CO)O2)c(=O)n1` [L(-)SddC, β-L-2',3'-dideoxy-3'-thiacytidine]?
A: Effect of L-nucleoside on ID50 of co-administered D-nucleoside (HIV-1IIIB [1]): reduces the ID50 value of AZT, ddC, DDI and D4T; also recorded: decreases the ID50 of a co-administered D-nucleoside and vice versa; IC50 (HIV-1IIIB [2]; unit inferred): 3000 nM; activity at 0.1 µM [4, 6]: 94%; activity at 1 µM [4, 5]: 89%; activity at 10 µM [4, 7]: 80%; activity at 50 µM ([4]; Homo sapiens, CCRF-CEM, 96 h, single agent, 50 uM, day 4, read-out: Day 4 Cell Growth - % of Control): 76%

Q: For `Nc1ccn(C2CCC(CO)O2)c(=O)n1` [ddC, β-D-2',3'-dideoxycytidine], which “Nature of the anti-HIV combination effect with L-nucleosides (ID50)” value (HIV-1IIIB [1]; D-nucleoside co-administered with β-L-FddC, L(-)FTC, L(-)SddC or β-L-Fd4C) is on record?
A: additively; also recorded: additive

Q: What about the IC50 (HIV-1IIIB [2]) of the same compound?
A: 600 nM

Q: What about the “Day 4 Cell Growth - % of Control” value ([4]; 0.01 uM, in combination with 1 uM 3TC) of the same compound?
A: 86 % of Control

Q: And the “Day 4 Cell Growth - % of Control” value ([4]; 0.01 uM, in combination with 1 uM (-) FTC)?
A: 91 % of Control

Q: What about the “Day 4 Cell Growth - % of Control” value ([4]; 0.01 uM, in combination with 1 uM β-L-FddC) of the same compound?
A: 88 % of Control

Q: What about the “Day 4 Cell Growth - % of Control” value ([4]; 0.1 uM, in combination with 1 uM 3TC) of the same compound?
A: 83 % of Control

Q: What about the “Day 4 Cell Growth - % of Control” value ([4]; 0.1 uM, in combination with 1 uM (-) FTC) of the same compound?
A: 87 % of Control

Q: And the “Day 4 Cell Growth - % of Control” value ([4]; 0.1 uM, in combination with 1 uM β-L-FddC)?
A: 84 % of Control

Q: What about the “Day 4 Cell Growth - % of Control” value ([4]; 1.0 uM, in combination with 1 uM 3TC) of the same compound?
A: 67 % of Control

Q: What about the “Day 4 Cell Growth - % of Control” value ([4]; 1.0 uM, in combination with 1 uM (-) FTC) of the same compound?
A: 69 % of Control

Q: And the “Day 4 Cell Growth - % of Control” value ([4]; 1.0 uM, in combination with 1 uM β-L-FddC)?
A: 76 % of Control

Q: And the activity at 0.01 µM ([4]; Homo sapiens, CCRF-CEM, 96 h, single agent, 0.01 uM, day 4, read-out: Day 4 Cell Growth - % of Control)?
A: 92%

Q: What about the activity at 0.1 µM [4, 6] of the same compound?
A: 80%

Q: And the activity at 1 µM [4, 5]?
A: 70%

Q: And the “Day 4 Cell Growth - % of Control, expected effect of the combined agents (parenthetical)” value (shortened to “Day 4 Cell Growth - % … (parenthetical)”) ([4]; 0.01 uM with 1 uM β-L-FddC)?
A: 78 % of Control

Q: What about the “Day 4 Cell Growth - % … (parenthetical)” value ([4]; 0.1 uM with 1 uM β-L-FddC) of the same compound?
A: 78 % of Control

Q: And the “Day 4 Cell Growth - % … (parenthetical)” value ([4]; 1.0 uM with 1 uM β-L-FddC)?
A: 66 % of Control

Q: And the “Day 4 Cell Growth - % of Control” value ([4]; single agent, 0.01 uM, 5760 min)?
A: 89 % of Control and 93 % of Control

Q: What about the “Day 4 Cell Growth - % of Control” value ([4]; single agent, 0.1 uM, 5760 min) of the same compound?
A: 83 % of Control and 93 % of Control

Q: And the “Day 4 Cell Growth - % of Control” value ([4]; single agent, 1.0 uM, 5760 min)?
A: 65 % of Control and 79 % of Control
